In patent publication US6743790B2, “Factor VIIa inhibitory (thio)urea derivatives, their preparation and their use” (Aventis Pharma Deutschland GmbH, priority 2000, dated 2004) one finds Ki and melting point data, which are given here for 30 molecules.

Usually Ki stands for a measure of affinity in units of concentration, obtained from inhibition or displacement. A lower Ki goes with tighter binding. The melting point is the temperature, or range, at which the solid turns liquid.

The target in one series is T1, factor VIIa/tissue factor (Homo sapiens, UniProt P08709).
T1 construct: human factor VIIa and TF (5 nM and 10 nM, respective final concentration)
T1 sequence (P08709 213-466 limits assumed): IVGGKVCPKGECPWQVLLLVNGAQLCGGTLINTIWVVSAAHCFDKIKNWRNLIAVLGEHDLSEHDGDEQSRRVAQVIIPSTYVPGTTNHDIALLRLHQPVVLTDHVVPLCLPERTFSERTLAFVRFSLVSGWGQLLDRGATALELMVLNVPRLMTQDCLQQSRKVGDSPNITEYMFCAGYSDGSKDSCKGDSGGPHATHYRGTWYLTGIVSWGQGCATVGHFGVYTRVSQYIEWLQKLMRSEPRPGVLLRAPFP
T1 sequence (P08709 61-212 limits assumed): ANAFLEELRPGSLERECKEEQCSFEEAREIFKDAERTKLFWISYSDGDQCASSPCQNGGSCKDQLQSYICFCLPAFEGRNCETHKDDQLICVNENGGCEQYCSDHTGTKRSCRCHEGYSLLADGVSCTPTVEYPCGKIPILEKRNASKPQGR
T1 sequence (P13726 33-295 partner): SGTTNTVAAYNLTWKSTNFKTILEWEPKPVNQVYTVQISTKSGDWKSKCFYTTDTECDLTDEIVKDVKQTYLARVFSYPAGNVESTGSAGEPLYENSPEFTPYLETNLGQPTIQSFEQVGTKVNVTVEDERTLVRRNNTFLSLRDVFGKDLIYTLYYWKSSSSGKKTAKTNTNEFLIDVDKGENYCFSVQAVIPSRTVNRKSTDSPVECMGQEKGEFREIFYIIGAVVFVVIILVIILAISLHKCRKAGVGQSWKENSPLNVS
As to the kind of experiment: Factor VIIa (FVIIa) chromogenic assay. The format is biochemical. Conditions: human factor VIIa 5 nM and TF 10 nM, substrate S-2288 500 μM, 25° C., 15 minute preincubation. Here is the method: The ability of the compounds of the formula I to inhibit factor VIIa or other enzymes like factor Xa, thrombin, plasmin, or trypsin is assessed by determining the concentration of the compound of the formula I that inhibits enzyme activity by 50%, i.e. the IC50 value, which is related to the inhibition constant Ki. Purified enzymes are used in chromogenic assays. The concentration of inhibitor that causes a 50% decrease in the rate of substrate hydrolysis is determined by linear regression after plotting the relative rates of hydrolysis (compared to the uninhibited control) versus the log of the concentration of the compound of formula I. For calculating the inhibition constant Ki, the IC50 value is corrected for competition with substrate using the formula Ki=IC50/{1+(substrate concentration/Km)},
wherein Km is the Michaelis-Menten constant (Chen and Prusoff, Biochem. Pharmacol. 22 (1973), 3099-3108; I. H. Segal, Enzyme Kinetics, 1975, John Wiley & Sons, New York, 100-125; which are incorporated herein by reference).
The inhibitory activity (expressed as inhibition constant Ki(FVIIa)) of the compounds of formula I towards factor VIIa/tissue factor activity was determined using a chromogenic assay essentially as described previously (J. A. Ostrem et al., Biochemistry 37 (1998) 1053-1059 which is incorporated herein by reference). Kinetic assays were conducted at 25° C. in half-area microtiter plates (Costar Corp., Cambridge, Mass.) using a kinetic plate reader (Molecular Devices Spectramax 250). A typical assay consisted of 25 μl human factor VIIa and TF (5 nM and 10 nM, respective final concentration) combined with 40 μl of inhibitor dilutions in 10% DMSO/TBS-PEG buffer (50 mM Tris, 15 mM NaCl, 5 mM CaCl2, 0.05% PEG 8000, pH 8.15). Following a 15 minute preincubation period, the assay was initiated by the addition of 35 μl of the chromogenic substrate S-2288 (D-Ile-Pro-Arg-p-nitroanilide, Pharmacia Hepar Inc., 500 μM final concentration).
For `N=C(N)c1ccc(NC(=O)NCC(=O)N[C@H]2CCc3ccccc32)cc1` [Example 44], the Ki was 1500 nM.

In the case of `N=C(N)c1ccc(NC(=O)NCC(=O)N[C@H]2CCCc3ccccc32)cc1` [Example 45], affinity was put at a Ki of 1410 nM.

As for `CC(NC(=O)CNC(=O)Nc1ccc(C(=N)N)cc1)c1ccc(Oc2ccc(Cl)cc2Cl)cc1` (centres unmarked) [Example 9], the inhibitory constant (Ki) is 480 nM. The molecule `CN(C)c1ccc(CNC(=O)CNC(=O)Nc2ccc(C(=N)N)cc2)cc1` [Example 4, 2-[3-(4-Carbamimidoylphenyl)ureido]-N-(4-dimethylaminobenzyl)acetamide] returned a Ki of 1940 nM. In the case of `Cc1ccc([C@H](C)NC(=O)CNC(=O)Nc2ccc(C(=N)N)cc2)cc1` [Example 21], the Ki worked out at 130 nM. Compared with the last molecule, the Ki is about 15-fold lower. Turning to `CC(NC(=O)CNC(=O)Nc1ccc(C(=N)N)cc1)c1ccc(NC(=O)CCCN)cc1` (centres unmarked) [Example 54], the Ki came out at 47 nM. `N=C(N)c1ccc(NC(=O)NCC(=O)NC(c2ccccc2)c2ccncc2)cc1` (centres unmarked) [Example 41] showed a Ki of 840 nM.

As for `C[C@H](NC(=O)Nc1ccc(C(=N)N)cc1)C(=O)NCc1ccc(C(=N)N)cc1` [Example 1, (S)-N-(4-Carbamimidoylbenzyl)-2-[3-(4-carbamimidoylphenyl)ureido]propionamide], affinity was put at a Ki of 14900 nM. On the same count and under the same terms, to `CC(C)(NC(=O)CNC(=O)Nc1ccc(C(=N)N)cc1)c1ccccc1` [Example 42] belongs 7620 nM. `C[C@@H](NC(=O)CNC(=O)Nc1ccc(C(=N)N)cc1)c1ccccc1` [Example 19]: the affinity corresponds to a Ki of 20200 nM. Still for that read-out and setting: next, `CC(NC(=O)CNC(=O)Nc1ccc(C(=N)N)cc1)c1ccc(C(F)(F)F)cc1C(F)(F)F` (centres unmarked) [Example 60]: 27 nM; `CC(NC(=O)CNC(=O)Nc1ccc(C(=N)N)cc1)c1ccc(NC(=O)C2CCNCC2)cc1` (centres unmarked) [Example 49, Piperidine-4-carboxylic acid 4-(1-{2-[3-(4-carbamimidoylphenyl)ureido]acetylamino}-ethyl)phenylamide]: 13 nM; `N=C(N)c1ccc(NC(=O)NCC(=O)NC(c2ccccc2)c2ccccc2)cc1` [Example 5, N-Benzhydryl-2-[3-(4-carbamimidoylphenyl)ureido]acetamide]: 730 nM. On the same count and under the same terms, to `CC(NC(=O)CNC(=O)Nc1ccc(C(=N)N)cc1)c1ccc2c(c1)NC(=O)CO2` (centres unmarked) [Example 61] belongs 23 nM; to `COC(=O)c1cc(C(C)NC(=O)CNC(=O)Nc2ccc(C(=N)N)cc2)ccc1OCc1ccccc1` (centres unmarked) [Example 64], 33 nM.

`N=C(N)c1ccc(NC(=O)NCC(=O)NCc2ccncc2)cc1` [Example 40] showed a Ki of 7890 nM. The molecule `CN(C)c1ccc(CNC(=O)C(Cc2ccccc2)NC(=O)Nc2ccc(C(=N)N)cc2)cc1` (centres unmarked) [Example 2, 2-[3-(4-Carbamimidoylphenyl)ureido]-N-(4-dimethylaminobenzyl)-3-phenylpropionamide] showed a Ki of 20900 nM. In the case of `N=C(N)c1ccc(NC(=O)NCC(=O)NCc2cccc(Cl)c2)cc1` [Example 6, 2-[3-(4-carbamimidoylphenyl)ureido]-N-(3-chlorobenzyl)acetamide], the inhibition constant Ki worked out at 2170 nM. `CC(NC(=O)CNC(=O)Nc1ccc(C(=N)N)cc1)c1ccc(NC(=O)c2cccc(Oc3ccccc3)c2)cc1` (centres unmarked) [Example 52] came in with a Ki of 12 nM. In turn, `C[C@H](NC(=O)CNC(=O)Nc1ccc(C(=N)N)cc1)c1ccc2ccccc2c1` [Example 30] gave an inhibition constant Ki of 26 nM. The same measure, in the same setting: to `CC(NC(=O)CNC(=O)Nc1ccc(C(=N)N)cc1)c1ccc(Oc2ccc([N+](=O)[O-])cc2)cc1` (centres unmarked) [Example 37] belongs 86 nM. `CC(NC(=O)CNC(=O)Nc1ccc(C(=N)N)c(Cl)c1)c1ccc2c(c1)OCCO2` (centres unmarked) [Example 68, 2-[3-(4-Carbamimidoyl-3-chlorophenyl)ureido]-N-[1-(2,3-dihydrobenzo[1,4]dioxin-6-yl)ethyl]acetamide] displayed a Ki of 3940 nM. This Ki is about 46-fold higher than that of the molecule before. Turning to `COc1ccc(Oc2ccc(C(C)NC(=O)CNC(=O)Nc3ccc(C(=N)N)cc3)cc2)cc1` (centres unmarked) [Example 36], the inhibitory constant (Ki) is 83 nM.

For `N=C(N)c1ccc(NC(=O)NCC(=O)NC(Cc2ccccc2)c2ccccc2)cc1` (centres unmarked) [Example 15], the Ki amounted to 6300 nM. `N#CC(NC(=O)CNC(=O)Nc1ccc(C(=N)N)cc1)c1ccc(F)cc1` (centres unmarked) [Example 43] gave a Ki of 8470 nM. The Ki values of the last two molecules are within 1.5-fold of each other. Take `C[C@H](NC(=O)CNC(=O)Nc1ccc(C(=N)N)cc1)c1ccccc1` [Example 18]: the affinity corresponds to a Ki of 430 nM. The molecule `CC(NC(=O)CNC(=O)Nc1ccc(C(=N)N)cc1)c1ccc(NC(=O)c2cccnc2)cc1` (centres unmarked) [Example 51] showed an inhibitory constant (Ki) of 50 nM. With `C[C@H](NC(=O)[C@H](CCC(=O)O)NC(=O)Nc1ccc(C(=N)N)cc1)c1cccc(Br)c1` [Example 70, (S)-4-[((S)-1-(3-Bromophenyl)ethyl)carbamoyl]-4-[3-(4-carbamimidoylphenyl)ureido]-butyric Acid], the inhibition constant (Ki) amounted to 539 nM.

In turn, `N=C(N)c1ccc(NC(=O)NCC(=O)NCc2ccc(Cl)c(Cl)c2)cc1` [Example 3, 2-[3-(4-Carbamimidoylphenyl)ureido]-N-(3,4-dichlorobenzyl)acetamide] had a Ki of 970 nM. Molecule `C[C@H](NC(=O)CNC(=O)Nc1ccc(C(=N)N)c(F)c1)c1cccc(Br)c1` [Example 69, N-[(S)-1-(3-Bromophenyl)ethyl]-2-[3-(4-carbamimidoyl-3-fluorophenyl)ureido]-acetamide] gave a Ki of 116 nM.

Test system in a further series: not given
Assay: not given
Conditions: not given
In turn, `CN(C)c1ccc(CNC(=O)CNC(=O)Nc2ccc(C(=N)N)cc2)cc1` [Example 4, 2-[3-(4-Carbamimidoylphenyl)ureido]-N-(4-dimethylaminobenzyl)acetamide] yielded a melting point of 209 to 214 °C. The same measure, in the same setting: to `CN(C)c1ccc(CNC(=O)C(Cc2ccccc2)NC(=O)Nc2ccc(C(=N)N)cc2)cc1` (centres unmarked) [Example 2, 2-[3-(4-Carbamimidoylphenyl)ureido]-N-(4-dimethylaminobenzyl)-3-phenylpropionamide] belongs 147 °C.
